According to patent US10077261B2, “Imidazolin-5-one derivative useful as FASN inhibitors for the treatment of cancer” (Janssen Pharmaceutica NV, priority 2012, dated 2018):

Target: T1, hFASN enzyme (full length) (Homo sapiens, UniProt P49327)
T1 construct: 10 μL hFASN enzyme (full length, 300 ng, purified in house); made in house
Assay: Fatty Acid Synthase (FASN) inhibition scintillation proximity assay
Format: biochemical
Conditions: for inhibition at 10 µM: read-out: Human FASN % inhibition @ 10 μM, 10 μM test compound; for IC50: read-out: Human FASN pIC50 (converted)
Procedure: In this assay, inhibition of FASN activity is measured using ^3H-acetyl-CoA and malonyl-CoA as substrates. ^3H-Acetyl CoA is converted to ^3H-palmitate through a series of reactions by the FASN protein, which contains 7 functional domains and carries out 7 enzymatic reactions to ultimately produce ^3H-palmitate. The assay principle is based upon the fact that ^3H-acetyl-CoA is hydrophilic and the end product, ^3H-palmitate is hydrophobic.
10 μL assay buffer (100 mM KH2PO4 pH 7.5, 1 mM DTT) (20 μL in blanks) was added to a 384-well white optiplate plate (Perkin Elmer). 0.9 μL test compound (at concentrations of 30 μM, 10 μM, 3 μM, 1 μM, 0.30 μM, 0.10 μM, 0.03 μM and 0.01 μM)/DMSO and 10 μL hFASN enzyme (full length, 300 ng, purified in house) or 10 μL assay buffer was added to the wells. […] The reaction was stopped by adding 20 μL Streptavidin coupled imaging beads (25 mg/ml). After incubation for 30 minutes at room temperature in the dark, the 384 well plate was centrifuged at 1500 rpm for 3 minutes and was measured after at least 24 hrs by the LEADseeker™, measuring emission using a 610±20 nm pass filter.
where mLC and mHC were the means of the low control wells and high control wells on the plate, after manual exclusion of outliers. A plot of Controlmin versus test compound concentration was fitted to a 4-parameter logistic curve using a non-linear least squares regression method.

T1 sequence (P49327 whole entry): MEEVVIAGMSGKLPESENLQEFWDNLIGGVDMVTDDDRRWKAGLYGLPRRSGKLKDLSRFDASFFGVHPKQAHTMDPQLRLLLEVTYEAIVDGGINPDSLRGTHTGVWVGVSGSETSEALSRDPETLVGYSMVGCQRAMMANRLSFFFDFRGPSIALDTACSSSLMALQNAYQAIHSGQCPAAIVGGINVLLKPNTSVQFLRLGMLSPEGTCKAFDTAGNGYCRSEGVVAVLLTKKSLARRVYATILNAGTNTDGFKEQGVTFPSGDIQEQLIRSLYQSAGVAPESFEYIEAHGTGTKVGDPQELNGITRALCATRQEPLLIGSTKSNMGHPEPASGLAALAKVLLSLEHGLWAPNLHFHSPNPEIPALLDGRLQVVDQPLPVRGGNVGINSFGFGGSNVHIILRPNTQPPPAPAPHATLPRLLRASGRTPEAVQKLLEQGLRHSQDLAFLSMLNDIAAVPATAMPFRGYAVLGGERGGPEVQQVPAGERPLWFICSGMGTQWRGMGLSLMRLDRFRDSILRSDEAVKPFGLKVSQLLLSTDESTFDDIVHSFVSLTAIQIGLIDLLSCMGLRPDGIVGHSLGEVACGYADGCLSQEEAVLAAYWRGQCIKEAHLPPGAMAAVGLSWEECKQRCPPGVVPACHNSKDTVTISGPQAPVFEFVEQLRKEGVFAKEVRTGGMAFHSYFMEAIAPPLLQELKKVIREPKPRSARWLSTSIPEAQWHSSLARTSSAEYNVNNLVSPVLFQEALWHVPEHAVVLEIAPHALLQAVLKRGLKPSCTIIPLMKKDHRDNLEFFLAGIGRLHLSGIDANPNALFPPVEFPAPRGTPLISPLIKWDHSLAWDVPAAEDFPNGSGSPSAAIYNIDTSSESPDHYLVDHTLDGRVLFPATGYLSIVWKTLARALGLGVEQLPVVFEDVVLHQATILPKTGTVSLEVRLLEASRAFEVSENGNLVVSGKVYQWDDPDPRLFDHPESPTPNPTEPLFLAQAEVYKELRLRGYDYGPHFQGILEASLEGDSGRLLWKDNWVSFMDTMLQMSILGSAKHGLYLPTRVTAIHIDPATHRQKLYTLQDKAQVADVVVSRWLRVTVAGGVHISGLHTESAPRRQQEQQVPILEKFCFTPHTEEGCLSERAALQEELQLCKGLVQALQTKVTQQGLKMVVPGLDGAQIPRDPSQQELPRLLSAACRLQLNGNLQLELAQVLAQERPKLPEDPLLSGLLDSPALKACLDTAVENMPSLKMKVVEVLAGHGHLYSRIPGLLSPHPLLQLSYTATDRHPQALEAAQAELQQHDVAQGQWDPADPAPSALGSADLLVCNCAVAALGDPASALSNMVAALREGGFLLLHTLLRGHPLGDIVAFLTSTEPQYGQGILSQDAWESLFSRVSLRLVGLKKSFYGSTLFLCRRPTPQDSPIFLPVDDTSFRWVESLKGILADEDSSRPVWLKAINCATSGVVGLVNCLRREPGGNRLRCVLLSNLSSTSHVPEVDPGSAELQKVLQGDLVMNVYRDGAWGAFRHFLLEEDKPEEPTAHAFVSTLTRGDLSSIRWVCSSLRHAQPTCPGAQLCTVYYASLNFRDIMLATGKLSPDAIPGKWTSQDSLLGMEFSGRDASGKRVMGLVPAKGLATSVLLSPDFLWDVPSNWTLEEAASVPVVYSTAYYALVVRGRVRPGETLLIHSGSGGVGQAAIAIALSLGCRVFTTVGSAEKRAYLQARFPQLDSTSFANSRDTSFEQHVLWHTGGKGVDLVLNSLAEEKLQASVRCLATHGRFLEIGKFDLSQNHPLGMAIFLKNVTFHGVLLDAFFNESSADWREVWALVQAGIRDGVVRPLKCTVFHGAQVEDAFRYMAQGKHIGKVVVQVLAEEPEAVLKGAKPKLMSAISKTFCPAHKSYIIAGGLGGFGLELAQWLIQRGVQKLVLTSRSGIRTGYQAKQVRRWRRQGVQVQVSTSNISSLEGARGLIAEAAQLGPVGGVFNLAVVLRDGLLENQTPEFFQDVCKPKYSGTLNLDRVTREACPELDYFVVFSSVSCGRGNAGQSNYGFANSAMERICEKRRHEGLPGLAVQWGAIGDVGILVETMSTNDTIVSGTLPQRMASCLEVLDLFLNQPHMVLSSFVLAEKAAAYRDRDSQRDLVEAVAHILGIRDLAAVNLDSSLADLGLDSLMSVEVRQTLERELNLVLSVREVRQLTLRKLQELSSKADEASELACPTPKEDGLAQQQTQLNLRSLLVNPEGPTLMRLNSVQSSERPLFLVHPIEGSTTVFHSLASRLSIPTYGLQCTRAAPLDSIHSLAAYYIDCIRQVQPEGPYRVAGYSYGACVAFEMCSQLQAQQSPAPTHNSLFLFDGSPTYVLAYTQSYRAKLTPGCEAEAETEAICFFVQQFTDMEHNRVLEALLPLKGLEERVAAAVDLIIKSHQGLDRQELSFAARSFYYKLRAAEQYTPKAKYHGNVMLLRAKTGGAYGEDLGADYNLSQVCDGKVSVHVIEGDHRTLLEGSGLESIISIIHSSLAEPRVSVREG

| inhibition at 10 µM [%] | IC50 [µM] | SMILES |
| --- | --- | --- |
| 65 | 6.92 | O=C(C1CC1)N1CC[C@@H](CN2C(=O)C3(CC3)N=C2c2ccc(-c3ccc4c(c3)OCCO4)cc2)C1 [compound 456, 6-{[(3R)-1-(Cycloprop-ylcarbonyl)pyrrolidin-3-yl]methyl}-5-[4-(2,3-dihydro-1,4-benzodioxin-6-yl)phenyl]-4,6-diazaspiro[2.4]hept-4-en-7-one] |
| 76 | 1.32 | O=C(C1CC1)N1CC(CN2C(=O)C3(CC3)N=C2c2ccc(-c3ccc(N4CCCC4)nc3)cc2)C1 [compound 482, 6-{[1-(Cyclopropylcarbonyl)azetidin-3-yl]methyl}-5-[4-(6-pyrrolidin-1-ylpyridin-3-yl)phenyl]-4,6-diazaspiro[2.4]hept-4-en-7-one] |
| 119 | 0.0692 | CN(C)CC(=O)N1CCC2(CC1)N=C(c1ccc(-c3ccc4cnccc4c3)cc1)N(C[C@@H]1CCN(C(=O)C3CC3)C1)C2=O [compound 142, 3-{[(3R)-1-(Cyclopropylcarbonyl)pyrrolidin-3-yl]methyl}-8-(N,N-dimethylglycyl)-2-(4-isoquinolin-6-ylphenyl)-1,3,8-triazaspiro[4.5]dec-1-en-4-one] |
| 61 | 4.27 | O=C(N1CC[C@@H](CN2C(=O)C3(CCOC3)N=C2c2ccc(-c3ccc4cccnc4c3)cc2)C1)C(F)(F)F (stereo partly drawn) [compound 684, 2-(4-Quinolin-7-ylphenyl)-3-{[(3R)-1-(trifluoroacetyl)pyrrolidin-3-yl]methyl}-7-oxa-1,3-diazaspiro[4.4]non-1-en-4-one] |
| 44 | 7.59 | CC(C)N1CCC2(CC1)N=C(c1ccc(-c3ccc(-c4cnn(C)c4)cc3)cc1)N(CC1CN(C(=O)C3CC3)C1)C2=O [compound 771, 3-{[1-(Cyclopropylcarbonyl)azetidin-3-yl]methyl}-8-(1-methylethyl)-2-[4′-(1-methyl-1H-pyrazol-4-yl)biphenyl-4-yl]-1,3,8-triazaspiro[4.5]dec-1-en-4-one] |
| 55.6 | 7.94 | Cn1ncc2cc(-c3ccc(C4=NC5(CCN(CCO)CC5)C(=O)N4CC4CN(C(=O)C5CC5)C4)cc3)ccc21 [compound 170, 3-{[1-(Cyclopropylcarbonyl)azetidin-3-yl]methyl}-8-(2-hydroxyethyl)-2-[4-(1-methyl-1H-indazol-5-yl)phenyl]-1,3,8-triazaspiro[4.5]dec-1-en-4-one] |
| 1 | > 10 | O=C(C1CC1)N1CCC[C@H](CN2C(=O)C3(CC3)N=C2c2ccc(-c3ccc4sccc4c3)cc2)C1 [compound 817, (S)-5-(4-(benzo[b]thiophen-5-yl)phenyl)-6-((1-(cyclopropanecarbonyl)piperidin-3-yl)methyl)-4,6-diazaspiro[2.4]hept-4-en-7-one] |
| 73 | 4.07 | O=C(C1CC1)N1CC(CN2C(=O)C3(CC3)N=C2c2ccc(-c3ccc(Br)cn3)cc2)C1 [compound 887, 5-(4-(5-bromopyridin-2-yl)phenyl)-6-((1-(cyclopropanecarbonyl)azetidin-3-yl)methyl)-4,6-diazaspiro[2.4]hept-4-en-7-one] |
| 62.1 | 5.13 | O=C(C1CC1)N1CCC(CN2C(=O)C3(CC3)N=C2c2ccc(-c3ccc(Cl)cc3)cc2)CC1 [compound 109, 5-(4′-Chlorobiphenyl-4-yl)-6-{[1-(cyclopropylcarbonyl)piperidin-4-yl]methyl}-4,6-diazaspiro[2.4]hept-4-en-7-one] |
| 112 | 0.129 | CC(C)C(=O)N1CCC2(CC1)N=C(c1ccc(-c3ccc4occc4c3)cc1)N(C[C@@H]1CCN(C(=O)C3CC3)C1)C2=O [compound 151, 2-[4-(1-Benzofuran-5-yl)phenyl]-3-{[(3R)-1-(cyclopropylcarbonyl)pyrrolidin-3-yl]methyl}-8-(2-methylpropanoyl)-1,3,8-triazaspiro[4.5]dec-1-en-4-one] |
| -6 | > 10 | O=C(c1nccs1)N1CC[C@@H](CN2C(=O)C3(CCOCC3)N=C2c2ccc(-c3ccc4occc4c3)cc2)C1 [compound 958, (R)-2-(4-(benzofuran-5-yl)phenyl)-3-((1-(thiazole-2-carbonyl)pyrrolidin-3-yl)methyl)-8-oxa-1,3-diazaspiro[4.5]dec-1-en-4-one] |
| 65.6 | 4.79 | N#Cc1cccc(-c2ccc(C3=NC4(CCCC4)C(=O)N3C[C@@H]3CCN(C(=O)C4CC4)C3)cc2)c1 [compound 83, 4′-(3-{[(3R)-1-(Cyclopropylcarbonyl)pyrrolidin-3-yl]methyl}-4-oxo-1,3-diazaspiro[4.4]non-1-en-2-yl)biphenyl-3-carbonitrile] |
| 78.9 | 2.45 | CC(C)C(=O)N1CCC2(CC1)N=C(c1ccc(-c3ccc4c(cnn4C)c3)cc1)N(CC1CN(C(=O)C3CC3)C1)C2=O [compound 135, 3-{[1-(Cyclopropylcarbonyl)azetidin-3-yl]methyl}-2-[4-(1-methyl-1H-indazol-5-yl)phenyl]-8-(2-methylpropanoyl)-1,3,8-triazaspiro[4.5]dec-1-en-4-one] |
| 74 | 3.8 | O=C(C1CC1)N1CC(CN2C(=O)C3(CCNCC3)N=C2c2ccc(-c3ccc4occc4c3)cc2)C1 [compound 130, 2-[4-(1-Benzofuran-5-yl)phenyl]-3-{[1-(cyclopropylcarbonyl)azetidin-3-yl]methyl}-1,3,8-triazaspiro[4.5]dec-1-en-4-one] |
| 77.7 | 2.95 | CN(C)CC(=O)N1CCC2(CC1)N=C(c1ccc(-c3ccc4c(cnn4C)c3)cc1)N(CC1CN(C(=O)C3CC3)C1)C2=O [compound 136, 3-{[1-(Cyclopropylcarbonyl)azetidin-3-yl]methyl}-8-(N,N-dimethylglycyl)-2-[4-(1-methyl-1H-indazol-5-yl)phenyl]-1,3,8-triazaspiro[4.5]dec-1-en-4-one] |
| 35.1 | > 10 | COc1ccccc1-c1ccc(C2=NC3(CC3)C(=O)N2CC2CCN(C(=O)C3CC3)CC2)cc1 [compound 98, 6-{[1-(Cyclopropylcarbonyl)piperidin-4-yl]methyl}-5-(2′-methoxybiphenyl-4-yl)-4,6-diazaspiro[2.4]hept-4-en-7-one] |
| 5 | > 10 | Cn1ncc2cc(-c3ccc(C4=NC5(CCOC5)C(=O)N4C[C@@H]4CCN(S(C)(=O)=O)C4)cc3)ccc21 (stereo partly drawn) [compound 933, 2-(4-(1-methyl-1H-indazol-5-yl)phenyl)-3-(((S)-1-(methylsulfonyl)pyrrolidin-3-yl)methyl)-7-oxa-1,3-diazaspiro[4.4]non-1-en-4-one] |
| 6 | > 10 | O=C(N1CC(CN2C(=O)C3(CCOC3)N=C2c2ccc(-c3ccc4cccnc4c3)cc2)C1)C(F)(F)F (stereo not drawn) [compound 895, 2-(4-(quinolin-7-yl)phenyl)-3-((1-(2,2,2-trifluoroacetyl)azetidin-3-yl)methyl)-7-oxa-1,3-diazaspiro[4.4]non-1-en-4-one] |
| 12 | > 10 | COC(=O)N1CC2(C1)N=C(c1ccc(-c3ccc(-c4cnn(C)c4)cc3)cc1)N(C[C@@H]1CCN(C(=O)C(F)(F)F)C1)C2=O [compound 919, (R)-methyl 6-(4′-(1-methyl-1H-pyrazol-4-yl)-[1,1′-biphenyl]-4-yl)-8-oxo-7-((1-(2,2,2-trifluoroacetyl)pyrrolidin-3-yl)methyl)-2,5,7-triazaspiro[3.4]oct-5-ene-2-carboxylate] |
| 117 | 0.0631 | CC(=O)N1CCC2(CC1)N=C(c1ccc(-c3ccc4cnccc4c3)cc1)N(C[C@@H]1CCN(C(=O)C3CC3)C1)C2=O [compound 144, 8-Acetyl-3-{[(3R)-1-(cyclopropylcarbonyl)pyrrolidin-3-yl]methyl}-2-(4-isoquinolin-6-ylphenyl)-1,3,8-triazaspiro[4.5]dec-1-en-4-one] |
| 96.5 | 0.776 | Cc1cc2cc(-c3ccc(C4=NC5(CCNCC5)C(=O)N4C[C@@H]4CCN(C(=O)C5CC5)C4)cc3)ccc2o1 [compound 155] |
| 52 | > 10 | Cc1cc(-c2cncc(Cl)c2)ccc1C1=NC2(CCCC2)C(=O)N1C[C@@H]1CCN(C(=O)C2CC2)C1 [compound 855, (R)-2-(4-(5-chloropyridin-3-yl)-2-methylphenyl)-3-((1-(cyclopropanecarbonyl)pyrrolidin-3-yl)methyl)-1,3-diazaspiro[4.4]non-1-rn-4-one] |
| 77 | 1 | Cc1cc(-c2ccc(C3=NC4(CC4)C(=O)N3CC3CN(C(=O)C4CC4)C3)cc2)cc2cnn(C)c12 [compound 492, 6-{[1-(Cyclopropylcarbonyl)azetidin-3-yl]methyl}-5-[4-(1,7-dimethyl-1H-indazol-5-yl)phenyl]-4,6-dazaspiro[2.4]hept-4-en-7-one] |
| 72.5 | 1.38 | COC(=O)N1CCC2(CC1)N=C(c1ccc(-c3ccc4occc4c3)cc1)N(CC1CN(C(=O)C3CC3)C1)C2=O [compound 16, Methyl 2-[4-(1-benzofuran-5-yl)phenyl]-3-{[1-(cyclopropylcarbonyl)azetidin-3-yl]methyl}-4-oxo-1,3,8-triazaspiro[4.5]dec-1-ene-8-carboxylate] |
